ChEMBL document CHEMBL6074674, “Development of Novel Silicon-Based Hydrophobic Tags (SiHyT) for Targeted Proteins Degradation” (J Med Chem, 2024)
Activity calls are given as the source filed them. No cut-off for these calls is given here.

Columns and labels:
HCC827 [1] = assay: Antiproliferative activity against human HCC827 cells assessed as decrease in cell survival measured after 72 hrs by CCK-8 assay; assay type: functional, cell-based; details: HCC827, 72 h
[2] = test system: E3 ubiquitin-protein ligase RNF149/Epidermal growth factor receptor (Homo sapiens), P00533+Q8NC42 [UNDEFINED MUTATION]; assay: SiHyT-mediated degrader activity at RNF149/EGFR mutant in human HCC827 cels assessed as induction of EGFR degradation at 0.1 uM cells incubated in serum-free media for 8 hrs followed by incubation with compound for 24 hrs by western blot analysis; assay type: cell-based
E3 ubiquitin-protein ligase RNF149/Epidermal growth factor receptor (Homo sapiens), P00533+Q8NC42 [UNDEFINED MUTATION], sequence (P00533 whole entry, looked up, change not shown): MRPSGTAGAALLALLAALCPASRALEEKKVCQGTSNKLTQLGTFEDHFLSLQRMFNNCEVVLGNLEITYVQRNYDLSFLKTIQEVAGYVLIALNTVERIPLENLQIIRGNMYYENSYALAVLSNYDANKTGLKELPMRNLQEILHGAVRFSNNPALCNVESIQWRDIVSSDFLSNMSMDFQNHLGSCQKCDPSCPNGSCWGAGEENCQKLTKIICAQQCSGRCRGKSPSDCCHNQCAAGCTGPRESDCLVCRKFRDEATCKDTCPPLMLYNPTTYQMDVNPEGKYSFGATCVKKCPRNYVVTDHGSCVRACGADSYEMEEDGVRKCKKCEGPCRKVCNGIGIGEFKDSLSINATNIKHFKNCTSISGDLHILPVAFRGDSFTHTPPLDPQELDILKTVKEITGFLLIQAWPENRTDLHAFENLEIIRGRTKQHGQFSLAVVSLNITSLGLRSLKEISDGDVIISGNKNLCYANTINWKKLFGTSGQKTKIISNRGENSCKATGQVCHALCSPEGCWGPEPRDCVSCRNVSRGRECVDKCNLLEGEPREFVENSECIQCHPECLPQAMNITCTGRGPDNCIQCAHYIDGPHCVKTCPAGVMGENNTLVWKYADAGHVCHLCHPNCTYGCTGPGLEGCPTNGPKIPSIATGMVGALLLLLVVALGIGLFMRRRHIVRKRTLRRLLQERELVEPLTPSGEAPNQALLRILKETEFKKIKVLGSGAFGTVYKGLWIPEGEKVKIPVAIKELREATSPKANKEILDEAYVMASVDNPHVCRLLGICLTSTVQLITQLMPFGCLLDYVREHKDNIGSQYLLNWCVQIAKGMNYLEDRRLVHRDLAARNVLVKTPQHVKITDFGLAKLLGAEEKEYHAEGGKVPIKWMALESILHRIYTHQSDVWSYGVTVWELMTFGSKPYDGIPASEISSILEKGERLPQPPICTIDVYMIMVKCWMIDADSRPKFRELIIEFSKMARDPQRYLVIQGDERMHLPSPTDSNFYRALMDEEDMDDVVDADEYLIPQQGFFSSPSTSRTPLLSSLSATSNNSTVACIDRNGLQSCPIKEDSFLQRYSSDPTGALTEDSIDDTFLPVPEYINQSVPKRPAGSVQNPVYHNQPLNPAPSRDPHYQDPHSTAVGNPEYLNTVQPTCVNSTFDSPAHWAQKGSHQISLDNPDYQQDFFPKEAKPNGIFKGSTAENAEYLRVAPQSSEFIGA
E3 ubiquitin-protein ligase RNF149/Epidermal growth factor receptor (Homo sapiens), P00533+Q8NC42 [UNDEFINED MUTATION], sequence (Q8NC42 whole entry, looked up, change not shown): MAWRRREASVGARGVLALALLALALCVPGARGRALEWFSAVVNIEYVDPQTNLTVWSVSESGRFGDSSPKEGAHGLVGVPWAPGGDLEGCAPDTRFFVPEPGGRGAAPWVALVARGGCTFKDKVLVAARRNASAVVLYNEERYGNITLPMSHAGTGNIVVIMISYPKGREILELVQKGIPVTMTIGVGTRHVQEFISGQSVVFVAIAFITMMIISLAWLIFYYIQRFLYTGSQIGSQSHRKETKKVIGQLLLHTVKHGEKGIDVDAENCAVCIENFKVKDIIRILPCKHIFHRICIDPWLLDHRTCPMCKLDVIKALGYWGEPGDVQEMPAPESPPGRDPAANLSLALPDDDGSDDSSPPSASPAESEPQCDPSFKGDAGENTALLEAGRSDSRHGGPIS

[3] = (§1) SiHyT-mediated degrader activity at RNF149/EGFR mutant in human PC-9 cells assessed as induction of EGFR degradation cells incubated in serum-free media for 8 hrs followed by incubation with compound for 24 hrs by western blot analysis; assay type: cell-based
PC-9 [4] = assay: as §1; assay type: cell-based
[5] = test system: E3 ubiquitin-protein ligase RNF149/Epidermal growth factor receptor (Homo sapiens), P00533+Q8NC42 [UNDEFINED MUTATION]; assay: (§2) SiHyT-mediated degrader activity at RNF149/EGFR mutant in human HCC827 cells assessed as induction of EGFR degradation cells incubated in serum-free media for 8 hrs followed by incubation with compound for 24 hrs by western blot analysis; assay type: cell-based
[6] = target: E3 ubiquitin-protein ligase RNF149/Epidermal growth factor receptor (Homo sapiens, UniProt P00533+Q8NC42); assay: as §2; assay type: cell-based
E3 ubiquitin-protein ligase RNF149/Epidermal growth factor receptor, sequence (P00533 whole entry, looked up, change not shown): as the sequence (P00533 whole entry, looked up, change not shown) above
E3 ubiquitin-protein ligase RNF149/Epidermal growth factor receptor, sequence (Q8NC42 whole entry, looked up, change not shown): as the sequence (Q8NC42 whole entry, looked up, change not shown) above

[7] = test system: E3 ubiquitin-protein ligase RNF149/Epidermal growth factor receptor (Homo sapiens), P00533+Q8NC42 [UNDEFINED MUTATION]; assay: SiHyT-mediated degrader activity at RNF149/EGFR mutant in human HCC827 cells assessed as induction of EGFR degradation by measuring decrease in half-time of EGFR at 1 uM incubated for 6 to 24 hrs in presence of protein synthesis inhibitor, cycloheximide by western blot analysis; assay type: cell-based; details: time 6-24 hrs
PC-9 [8] = assay: SiHyT-mediated degrader activity at RNF149/EGFR mutant in human PC-9 cells assessed as increase in EGFR ubiquitination level at 2 uM pretreated with MG132 for 2 hrs followed by incubation with compound for 9 hrs by immunoprecipitation based western blot analysis; assay type: cell-based
HCC827 [9] = assay: Inhibition of colony formation in human HCC827 cells assessed as inhibition of malignant clonal growth at 0.5 to 1 uM measured after 7 days by crystal violet staining based analysis; assay type: functional, cell-based; details: dose 0.5-1 µM, time 7.0 day
HCC827 [10] = assay: Induction of cell cycle arrest in human HCC827 cells assessed as increase in cell accumulation at G1 phase at 0.5 to 2 uM incubated for 24 hrs by propidium iodide staining based flow cytometry; assay type: functional; details: dose 0.5-2 µM
PC-9 [11] = assay: Inhibition of cell invasion in human PC-9 cells at 0.5 to 1 uM incubated for 24 hrs by wound healing analysis; assay type: functional, cell-based; details: dose 0.5-1 µM
HCC827 [12] = assay: Inhibition of cell invasion in human HCC827 cells at 0.25 to 2 uM incubated for 12 hrs by Transwell assay; assay type: functional, cell-based; details: dose 0.25-2 µM
[13] = Half life of the compound in mouse liver microsomes at 1 uM in presence of NADPH by LC-MS/MS analysis; assay type: ADME, Microsome
[14] = Half life in ICR mouse at 1 mg/kg, iv by LC-MS/MS analysis; assay type: ADME, organism-based; details: in vivo
[15] = MRT in ICR mouse at 1 mg/kg, iv by LC-MS/MS analysis; assay type: ADME, organism-based; details: in vivo
[16] = Tmax in ICR mouse at 10 mg/kg, po by LC-MS/MS analysis; assay type: ADME, organism-based; details: in vivo
[17] = AUC in ICR mouse at 10 mg/kg, po by LC-MS/MS analysis; assay type: ADME, organism-based; details: in vivo
[18] = Toxicity in mouse assessed as pathological changes in liver administered for 14 days by Hematoxylin-Eosin staining based analysis; assay type: tissue-based; details: in vivo, 336 h, time 14 day
[19] = Toxicity in mouse assessed as pathological changes in kidneys administered for 14 days by Hematoxylin-Eosin staining based analysis; details: in vivo, 336 h, time 14 day
PC-9 [20] = assay: Induction of interaction between RNF149/EGFR mutant in human PC-9 cells assessed as disruption of EGFR mutant/HSP70 complex formation at 2 uM measured after 6 hrs by co-immunoprecipitation analysis; assay type: cell-based
PC-9 [21] = assay: Induction of interaction between RNF149/EGFR mutant in human PC-9 cells assessed as disruption of EGFR mutant/HSP90 complex formation at 2 uM measured after 6 hrs by co-immunoprecipitation analysis; assay type: cell-based
PC-9 [22] = assay: SiHyT-mediated degrader activity at RNF149/EGFR mutant in human PC-9 cells assessed as induction of EGFR degradation at 1 uM in presence of HSP90 inhibitor, geldanamycin by western blot analysis; assay type: cell-based
PC-9 [23] = assay: Binding affinity to RNF149/EGFR mutant in human PC-9 cells at 2 uM incubated for 4 hrs by CETSA analysis; assay type: cell-based
L02 = assay: Cytotoxicity against human LO2 cells assessed as reduction in cell viability; assay type: toxicity, cell-based
BEAS-2B = assay: Cytotoxicity against human BEAS-2B cells assessed as reduction in cell viability; assay type: toxicity, cell-based

Question: For `COc1cc2ncnc(Nc3ccc(F)c(Cl)c3)c2cc1OCCn1cc(CCCO[Si](c2ccccc2)(c2ccccc2)C(C)(C)C)nn1`, which IC50 (HCC827 [1]) is on record?
Answer: 70 nM

Question: And the Activity [2]?
Answer: 54.6%

Question: What about the DC50 [3] of the same molecule?
Answer: 1420 nM

Question: What about the Activity (PC-9 [4]) of the same molecule?
Answer: Dose-dependent-effect

Question: What about the Activity [5] of the same molecule?
Answer: Dose-dependent-effect

Question: And the DC50 [6]?
Answer: 750 nM

Question: What about the Activity [7] of the same molecule?
Answer: Active

Question: And the Activity (PC-9 [8])?
Answer: Active

Question: What about the inhibition (HCC827 [9]) of the same molecule?
Answer: Active

Question: What about the Activity (HCC827 [10]) of the same molecule?
Answer: Dose-dependent-effect

Question: And the inhibition (PC-9 [11])?
Answer: Active

Question: And the inhibition (HCC827 [12])?
Answer: Active

Question: And the half-life at 1 µM [13]?
Answer: > 1 h

Question: What about the half-life [14] of the same molecule?
Answer: 2.18 h

Question: And the MRT [15]?
Answer: 2.72 h

Question: And the Tmax [16]?
Answer: 1 h

Question: What about the AUC [17] of the same molecule?
Answer: 1876.65 ng·mL·h

Question: What about the Activity [18] of the same molecule?
Answer: Non-toxic

Question: What about the Activity [19] of the same molecule?
Answer: Non-toxic

Question: What about the Activity (PC-9 [20]) of the same molecule?
Answer: inactive

Question: What about the Activity (PC-9 [21]) of the same molecule?
Answer: Active

Question: And the Activity (PC-9 [22])?
Answer: Active

Question: And the Activity (PC-9 [23])?
Answer: Active

Question: And the Activity (L02)?
Answer: Toxic

Question: What about the Activity (BEAS-2B) of the same molecule?
Answer: Toxic
